Results published in patent US20030153539A1, “Method to potentiate the therapeutic efficacy of taxane and derivatives thereof” (priority 2000, published 2003).

Legend:
[1] = target: T1, CYP2C8 (Homo sapiens, UniProt P10632); assay: Inhibition of CYP2C8 mediated 6α-hydroxylation of paclitaxel (human CYP2C8 cDNA expressed microsomes, HPLC-UV); format: biochemical; conditions: 20 μM paclitaxel
T1 construct: purchased Gentest (Woburn, Mass., USA)
T1 sequence (P10632 1-490): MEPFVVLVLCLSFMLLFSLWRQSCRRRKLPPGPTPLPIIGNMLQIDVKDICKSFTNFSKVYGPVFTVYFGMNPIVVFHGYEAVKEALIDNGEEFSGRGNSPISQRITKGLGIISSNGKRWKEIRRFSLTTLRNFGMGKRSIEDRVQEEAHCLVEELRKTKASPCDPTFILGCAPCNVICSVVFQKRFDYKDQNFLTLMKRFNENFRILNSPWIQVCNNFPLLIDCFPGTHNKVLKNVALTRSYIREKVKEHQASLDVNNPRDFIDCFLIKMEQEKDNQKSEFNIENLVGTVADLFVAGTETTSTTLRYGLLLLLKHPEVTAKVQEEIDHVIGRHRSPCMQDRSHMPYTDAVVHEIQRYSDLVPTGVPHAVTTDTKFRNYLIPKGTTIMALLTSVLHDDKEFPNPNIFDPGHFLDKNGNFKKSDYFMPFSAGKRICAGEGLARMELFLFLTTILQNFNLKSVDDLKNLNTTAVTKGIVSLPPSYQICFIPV
Description: A 100 μl reaction mixture containing 4 pmol CYP2C8, […] paclitaxel (5 mM paclitaxel stock in ethanol) and NADPH (2 mM) in 50 mM potassium phosphate buffer (pH 7.4) was incubated at 37° C. for 40 min in the absence (solvent only) and presence of either 100 μM estramustine or estromustine.
Estramustine and estromustine were dissolved in DMSO:CH3CN (1:1). The reaction was stopped by addition of 50 μl CH3CN followed by an additional 50 μl of mobile phase. […] All incubations were conducted in triplicate.
See table 2 for HPLC mobile phase conditions. Both paclitaxel and the metabolite 6a-hydroxypaclitaxel were detected by its absorbance at 230 nm.
To investigate if estramustine and estromustine were able to inhibit CYP2C8 mediated enzyme activities, human CYP2C8 cDNA expressed microsomes were incubated with paclitaxel in the presence of either estramustine or estromustine.

[2] = target: T2, CYP1A2 (Homo sapiens, UniProt P05177); assay: In vitro inhibition of cDNA expressed human CYP1A2 (chlorzoxazone substrate, radio-HPLC); conditions: mean of n=3
T2 sequence (P05177 1-516): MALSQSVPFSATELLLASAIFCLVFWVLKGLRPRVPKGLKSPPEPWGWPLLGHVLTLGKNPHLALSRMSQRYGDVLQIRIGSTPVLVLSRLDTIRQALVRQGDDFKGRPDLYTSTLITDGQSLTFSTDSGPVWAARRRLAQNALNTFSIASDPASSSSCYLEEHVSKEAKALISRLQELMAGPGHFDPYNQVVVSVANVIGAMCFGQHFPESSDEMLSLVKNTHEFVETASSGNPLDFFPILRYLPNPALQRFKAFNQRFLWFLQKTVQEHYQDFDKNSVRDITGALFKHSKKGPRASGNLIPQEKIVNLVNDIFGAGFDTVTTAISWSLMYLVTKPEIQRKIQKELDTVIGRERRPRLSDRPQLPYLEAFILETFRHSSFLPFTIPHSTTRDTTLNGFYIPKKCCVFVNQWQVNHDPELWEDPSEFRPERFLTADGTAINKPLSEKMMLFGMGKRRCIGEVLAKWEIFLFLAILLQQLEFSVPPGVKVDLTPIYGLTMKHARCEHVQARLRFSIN
Description: (§1) All incubations were conducted in triplicate.
(§2) See table 2 for HPLC mobile phase conditions.

[3] = target: CYP2D6 (Homo sapiens, UniProt P10635); assay: In vitro inhibition of cDNA expressed human CYP2D6 (delavirdine substrate, radio-HPLC); conditions: mean of n=3
Description: as §1, §2

[4] = target: CYP2C9 (Homo sapiens, UniProt P11712); assay: In vitro inhibition of cDNA expressed human CYP2C9 (diclofenac substrate, radio-HPLC); conditions: mean of n=3
Description: as §1, §2

[5] = target: CYP3A4 (Homo sapiens, UniProt P08684); assay: In vitro inhibition of cDNA expressed human CYP3A4 (testosterone substrate, radio-HPLC); conditions: for percentage of activity remaining in the presence of the compound: mean of n=3
Description: as §1, §2

[6] = target: CYP2C19 (Homo sapiens, UniProt P33261); assay: In vitro inhibition of cDNA expressed human CYP2C19 ((S)-mephenytoin substrate, radio-HPLC); conditions: control 100%, mean of n=3
Description: as §1, §2

[7] = CYP1A2, compound at 100 μM, control 100%
[8] = CYP2D6, compound at 100 μM, control 100%
[9] = CYP2C9, compound at 100 μM, control 100%
[10] = CYP3A4, compound at 100 μM, control 100%

CYP3A4, sequence (P08684 whole entry): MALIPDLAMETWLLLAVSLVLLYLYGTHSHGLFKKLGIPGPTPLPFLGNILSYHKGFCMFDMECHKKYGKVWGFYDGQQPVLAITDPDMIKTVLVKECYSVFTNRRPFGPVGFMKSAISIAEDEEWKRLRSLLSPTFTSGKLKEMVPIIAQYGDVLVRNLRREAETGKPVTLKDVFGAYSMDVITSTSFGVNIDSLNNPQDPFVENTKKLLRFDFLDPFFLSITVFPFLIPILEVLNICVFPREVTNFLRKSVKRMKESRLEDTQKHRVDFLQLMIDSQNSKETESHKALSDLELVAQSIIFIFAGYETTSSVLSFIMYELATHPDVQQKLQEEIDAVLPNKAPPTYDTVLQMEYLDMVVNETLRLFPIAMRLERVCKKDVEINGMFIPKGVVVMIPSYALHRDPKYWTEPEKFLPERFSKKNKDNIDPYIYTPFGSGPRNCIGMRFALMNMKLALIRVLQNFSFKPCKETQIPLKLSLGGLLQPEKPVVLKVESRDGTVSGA
CYP2C19, sequence (P33261 whole entry): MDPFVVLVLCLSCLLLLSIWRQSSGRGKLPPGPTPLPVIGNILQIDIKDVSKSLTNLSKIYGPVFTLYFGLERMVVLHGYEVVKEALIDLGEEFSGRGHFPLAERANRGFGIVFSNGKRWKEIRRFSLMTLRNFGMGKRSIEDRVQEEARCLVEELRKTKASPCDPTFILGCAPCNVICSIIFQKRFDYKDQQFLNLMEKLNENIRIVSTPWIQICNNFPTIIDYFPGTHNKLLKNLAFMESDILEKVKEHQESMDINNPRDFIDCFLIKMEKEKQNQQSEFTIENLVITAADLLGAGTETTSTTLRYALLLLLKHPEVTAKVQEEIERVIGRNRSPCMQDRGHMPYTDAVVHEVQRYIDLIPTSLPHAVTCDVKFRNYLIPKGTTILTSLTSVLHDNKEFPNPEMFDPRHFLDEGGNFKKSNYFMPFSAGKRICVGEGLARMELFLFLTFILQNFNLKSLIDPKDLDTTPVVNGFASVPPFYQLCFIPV
CYP2C9, sequence (P11712 whole entry): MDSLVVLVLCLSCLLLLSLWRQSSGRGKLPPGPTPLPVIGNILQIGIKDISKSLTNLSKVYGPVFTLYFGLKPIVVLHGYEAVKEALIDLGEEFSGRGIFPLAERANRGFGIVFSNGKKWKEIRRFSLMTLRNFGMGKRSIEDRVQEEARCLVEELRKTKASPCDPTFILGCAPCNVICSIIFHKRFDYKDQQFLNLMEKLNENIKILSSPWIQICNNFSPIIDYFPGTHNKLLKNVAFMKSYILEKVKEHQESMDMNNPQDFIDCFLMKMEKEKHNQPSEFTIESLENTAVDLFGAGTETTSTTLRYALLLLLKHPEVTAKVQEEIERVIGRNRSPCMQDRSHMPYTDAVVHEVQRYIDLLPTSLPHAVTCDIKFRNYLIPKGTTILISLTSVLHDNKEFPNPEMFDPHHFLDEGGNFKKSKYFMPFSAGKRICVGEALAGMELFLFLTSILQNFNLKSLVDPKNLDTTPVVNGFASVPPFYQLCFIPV
CYP2D6, sequence (P10635 whole entry): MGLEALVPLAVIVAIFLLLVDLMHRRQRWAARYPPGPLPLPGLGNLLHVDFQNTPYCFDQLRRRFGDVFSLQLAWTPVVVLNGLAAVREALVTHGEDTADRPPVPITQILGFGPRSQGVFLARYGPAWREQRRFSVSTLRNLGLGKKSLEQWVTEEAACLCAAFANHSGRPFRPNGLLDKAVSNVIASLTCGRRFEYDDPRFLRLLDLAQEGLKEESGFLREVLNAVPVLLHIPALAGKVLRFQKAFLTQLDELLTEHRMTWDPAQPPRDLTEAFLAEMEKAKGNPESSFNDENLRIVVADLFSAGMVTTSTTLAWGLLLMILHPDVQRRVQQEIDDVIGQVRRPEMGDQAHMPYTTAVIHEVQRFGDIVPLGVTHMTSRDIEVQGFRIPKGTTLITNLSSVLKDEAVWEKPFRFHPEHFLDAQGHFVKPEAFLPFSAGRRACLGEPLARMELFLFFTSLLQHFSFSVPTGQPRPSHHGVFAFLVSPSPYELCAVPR

| Structure (SMILES) | inhibition at 40 min, 100 μM ([1]; human, microsomes, pH 7.4, CYP2C8, compound at 100 μM) [%] | percentage of activity remaining in the presence of the compound [2, 7] [%] | percentage of activity remaining in the presence of the compound ([2]; CYP1A2, control 100%) [%] | percentage of activity remaining in the presence of the compound [3, 8] [%] | percentage of activity remaining in the presence of the compound ([3]; CYP2D6, control 100%) [%] | percentage of activity remaining in the presence of the compound [4, 9] [%] | percentage of activity remaining in the presence of the compound ([4]; CYP2C9, control 100%) [%] | percentage of activity remaining in the presence of the compound [5, 10] [%] | percentage of activity remaining in the presence of the compound ([5]; CYP3A4, control 100%) [%] | inhibition at 90 min, 100 µM ([5]; human) [%] | percentage of activity remaining in the presence of the compound ([6]; CYP2C19, compound at 100 μM) [%] | percentage of activity remaining in the presence of the compound ([6]; CYP2C19, first estramustine column, head prints 100 μM) [%] | inhibition of 6α-hydroxylation of paclitaxel ([1]; CYP2C8, compound at 100 μM, 40 min) [%] | percentage of activity remaining in the presence of the compound ([2]; CYP1A2, compound at 10 μM, control 100%) [%] | percentage of activity remaining in the presence of the compound ([3]; CYP2D6, compound at 10 μM, control 100%) [%] | percentage of activity remaining in the presence of the compound ([4]; CYP2C9, compound at 10 μM, control 100%) [%] | percentage of activity remaining in the presence of the compound ([5]; CYP3A4, compound at 10 μM, control 100%) [%] | percentage of activity remaining in the presence of the compound ([6]; CYP2C19, compound at 10 μM) [%] |
| --- | --- | --- | --- | --- | --- | --- | --- | --- | --- | --- | --- | --- | --- | --- | --- | --- | --- | --- |
| C[C@]12CC[C@@H]3c4ccc(OC(=O)N(CCCl)CCCl)cc4CC[C@H]3[C@@H]1CC[C@@H]2O [Estramustine, estramustine] | 40 | 57.2 | 72.7 | 32.7 | 38.0 | 58.8 | 56.4 | 20.2 | 27.0 | ~80 | 40.1 | 37.9 |  |  |  |  |  |  |
| C[C@]12CC[C@@H]3c4ccc(OC(=O)N(CCCl)CCCl)cc4CC[C@H]3[C@@H]1CCC2=O [Estromustine, estromustine] |  | 68.4 |  | 76.9 |  | 86.9 |  | 33.1 |  |  | 81.0 |  | 20 | 85.0 | 64.1 | 92.5 | 43.2 | 90.6 |
